Target: viral helicase (Hepatitis C virus (isolate H77), UniProt P27958)
Assay: Assay for Helicase Inhibition
Type: biochemical, HCV
Conditions: average of three test results; read-out: IC50 (concentration required to achieve a 50% inhibition of helicase activity)
Protocol: Anti-viral activity was measured on the basis of inhibition of helicase activity. The biological studies of the anti-viral activity of the compounds of the invention are described below.
Example 6 illustrates the efficacy of compounds of the invention in inhibiting the viral helicase activity.
Assay for Helicase Inhibition
The helicase inhibition assay was performed according to methodology of the type described, for example, in: Lain et al., Nucleic Acids Res. 18:7003-7006 (1991); Warrener et al., J. Virol. 69:1720-1726 (1995); Kim et al., Biochem. Biophys. Res. Comm. 214:160-166 (1995). The value given in Table 1 represent the average of three test results in which the concentrations of anti-viral compound required to achieve a 50% inhibition of helicase activity (IC50) were measured.

Sequence of viral helicase (P27958 1027-1657): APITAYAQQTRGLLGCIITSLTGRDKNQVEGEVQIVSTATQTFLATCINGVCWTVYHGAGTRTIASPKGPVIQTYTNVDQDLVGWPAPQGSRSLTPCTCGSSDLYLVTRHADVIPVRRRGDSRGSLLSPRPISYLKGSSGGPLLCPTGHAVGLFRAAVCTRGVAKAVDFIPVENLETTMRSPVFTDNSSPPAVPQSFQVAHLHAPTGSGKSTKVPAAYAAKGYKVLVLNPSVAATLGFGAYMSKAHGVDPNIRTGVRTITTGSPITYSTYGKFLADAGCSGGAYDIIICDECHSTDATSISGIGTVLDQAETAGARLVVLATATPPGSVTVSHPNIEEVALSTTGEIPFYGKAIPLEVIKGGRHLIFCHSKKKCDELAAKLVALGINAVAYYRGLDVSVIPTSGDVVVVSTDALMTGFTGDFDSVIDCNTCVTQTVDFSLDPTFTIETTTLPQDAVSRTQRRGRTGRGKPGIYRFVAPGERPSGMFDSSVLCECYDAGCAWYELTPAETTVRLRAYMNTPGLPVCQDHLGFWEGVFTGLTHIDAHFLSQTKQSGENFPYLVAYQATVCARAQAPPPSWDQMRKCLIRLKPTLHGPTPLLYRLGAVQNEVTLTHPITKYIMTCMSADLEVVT

c1cc(CN2CCC(C3=N[C@@H]4CCCC[C@H]4N3)CC2)ccc1CN1CCC(C2=N[C@@H]3CCCC[C@H]3N2)CC1 (relative stereo) [Example 3, 1,1'-[1,4-phenylenebis (methylene)]bis(4,4'-trans-(4,5,6,7,8,9-hexahydro)benzimidazoyl)piperidine]
IC50: 7 µM

Source: patent US5830905A, “Compounds, compositions and methods for treatment of hepatitis C” (Viropharma Incorporated, priority 1996, dated 1998)
